The source of these data is article PMC12586182 (Frontiers in Oncology, 2025).

In general, inhibition refers to the drop in the measured response relative to a control, in per cent. One may read the IC50 as the concentration that inhibits the measured activity by half.

One test deals with T1, FAK (Homo sapiens, UniProt Q05397).
T1 construct: purchased Carna Biosciences
Put plainly: Kinase panel profiling at 1 µmol/L (mobility shift assay, Carna). The class given is biochemical. The following applies: 1 µmol/L of BTK inhibitor.

The target of another test is T2, TRKA (Homo sapiens, UniProt P04629).
T2 construct: purchased Carna Biosciences
T2 sequence (P04629 33-796): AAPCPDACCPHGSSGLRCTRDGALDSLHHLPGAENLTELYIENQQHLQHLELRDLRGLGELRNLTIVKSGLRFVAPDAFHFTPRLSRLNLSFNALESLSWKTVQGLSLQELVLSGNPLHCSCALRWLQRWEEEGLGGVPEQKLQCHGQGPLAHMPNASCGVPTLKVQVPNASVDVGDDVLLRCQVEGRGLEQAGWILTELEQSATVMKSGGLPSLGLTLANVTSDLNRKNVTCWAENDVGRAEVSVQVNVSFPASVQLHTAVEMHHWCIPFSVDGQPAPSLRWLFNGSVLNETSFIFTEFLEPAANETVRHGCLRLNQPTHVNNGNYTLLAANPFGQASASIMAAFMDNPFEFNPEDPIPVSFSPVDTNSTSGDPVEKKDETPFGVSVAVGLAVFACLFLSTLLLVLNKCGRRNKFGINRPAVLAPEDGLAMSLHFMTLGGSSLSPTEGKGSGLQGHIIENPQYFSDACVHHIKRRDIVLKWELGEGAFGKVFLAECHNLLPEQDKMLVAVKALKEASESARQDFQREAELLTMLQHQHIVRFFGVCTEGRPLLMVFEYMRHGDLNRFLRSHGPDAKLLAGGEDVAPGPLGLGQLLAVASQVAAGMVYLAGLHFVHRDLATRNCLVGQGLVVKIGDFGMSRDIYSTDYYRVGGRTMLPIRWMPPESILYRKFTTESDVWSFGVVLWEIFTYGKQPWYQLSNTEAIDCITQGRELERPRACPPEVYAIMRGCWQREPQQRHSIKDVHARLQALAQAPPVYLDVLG
The description is as above. The class given is biochemical. To be noted: 1 µmol/L of BTK inhibitor.

The target of the next test is T3, AurA/TPX2 (Homo sapiens, UniProt O14965).
T3 construct: purchased Carna Biosciences
T3 sequence (O14965 1-403): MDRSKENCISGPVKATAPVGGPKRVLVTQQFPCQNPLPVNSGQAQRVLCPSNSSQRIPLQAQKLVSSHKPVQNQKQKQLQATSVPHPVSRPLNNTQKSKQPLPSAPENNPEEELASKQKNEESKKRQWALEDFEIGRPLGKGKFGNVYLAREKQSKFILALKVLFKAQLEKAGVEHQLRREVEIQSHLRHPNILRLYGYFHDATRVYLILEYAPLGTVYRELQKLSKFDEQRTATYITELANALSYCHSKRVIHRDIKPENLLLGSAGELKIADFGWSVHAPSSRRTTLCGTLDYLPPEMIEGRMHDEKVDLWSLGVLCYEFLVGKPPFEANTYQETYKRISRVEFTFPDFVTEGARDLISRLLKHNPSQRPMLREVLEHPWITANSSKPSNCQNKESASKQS
T3 sequence (Q9ULW0 1-43 partner limits assumed): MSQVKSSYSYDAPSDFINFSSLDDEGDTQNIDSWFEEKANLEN
The test is described as above. The following applies: 1 µmol/L of BTK inhibitor. The format is biochemical.

The next test addresses T4, CaMK2β (Homo sapiens, UniProt Q13554).
T4 construct: purchased Carna Biosciences
The test is described as above. The class given is biochemical. The following applies: 1 µmol/L of BTK inhibitor.

A further test deals with T5, CDK9/CycT1 (Homo sapiens, UniProt P50750).
T5 construct: purchased Carna Biosciences
The description is as above. The following applies: 1 µmol/L of BTK inhibitor. The class given is biochemical.

Another test deals with T6, CGK2 (Homo sapiens, UniProt Q13237).
T6 construct: purchased Carna Biosciences
T6 sequence (Q13237 1-762): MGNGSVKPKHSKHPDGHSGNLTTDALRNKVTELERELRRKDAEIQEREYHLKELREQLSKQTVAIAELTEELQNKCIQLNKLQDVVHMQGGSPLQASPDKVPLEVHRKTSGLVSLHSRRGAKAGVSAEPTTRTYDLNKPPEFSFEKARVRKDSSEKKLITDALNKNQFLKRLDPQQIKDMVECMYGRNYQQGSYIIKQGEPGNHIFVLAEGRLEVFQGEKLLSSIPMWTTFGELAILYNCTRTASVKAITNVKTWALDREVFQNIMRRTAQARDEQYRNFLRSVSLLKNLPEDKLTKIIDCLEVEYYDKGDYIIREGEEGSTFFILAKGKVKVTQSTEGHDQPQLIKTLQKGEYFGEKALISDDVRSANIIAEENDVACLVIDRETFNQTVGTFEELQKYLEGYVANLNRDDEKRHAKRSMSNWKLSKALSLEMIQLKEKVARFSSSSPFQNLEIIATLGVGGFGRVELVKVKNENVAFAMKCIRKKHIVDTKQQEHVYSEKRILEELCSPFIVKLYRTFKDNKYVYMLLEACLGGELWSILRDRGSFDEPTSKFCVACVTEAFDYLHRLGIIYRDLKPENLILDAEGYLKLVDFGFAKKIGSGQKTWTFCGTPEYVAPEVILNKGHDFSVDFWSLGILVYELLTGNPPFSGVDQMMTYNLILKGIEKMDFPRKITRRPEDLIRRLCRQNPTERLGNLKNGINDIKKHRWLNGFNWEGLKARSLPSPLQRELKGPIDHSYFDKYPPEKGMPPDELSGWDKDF
The description is as above. To be noted: 1 µmol/L of BTK inhibitor. The format is biochemical.

The target of the next test is T7, Haspin (Homo sapiens, UniProt Q8TF76).
T7 construct: purchased Carna Biosciences
T7 sequence (Q8TF76 1-798): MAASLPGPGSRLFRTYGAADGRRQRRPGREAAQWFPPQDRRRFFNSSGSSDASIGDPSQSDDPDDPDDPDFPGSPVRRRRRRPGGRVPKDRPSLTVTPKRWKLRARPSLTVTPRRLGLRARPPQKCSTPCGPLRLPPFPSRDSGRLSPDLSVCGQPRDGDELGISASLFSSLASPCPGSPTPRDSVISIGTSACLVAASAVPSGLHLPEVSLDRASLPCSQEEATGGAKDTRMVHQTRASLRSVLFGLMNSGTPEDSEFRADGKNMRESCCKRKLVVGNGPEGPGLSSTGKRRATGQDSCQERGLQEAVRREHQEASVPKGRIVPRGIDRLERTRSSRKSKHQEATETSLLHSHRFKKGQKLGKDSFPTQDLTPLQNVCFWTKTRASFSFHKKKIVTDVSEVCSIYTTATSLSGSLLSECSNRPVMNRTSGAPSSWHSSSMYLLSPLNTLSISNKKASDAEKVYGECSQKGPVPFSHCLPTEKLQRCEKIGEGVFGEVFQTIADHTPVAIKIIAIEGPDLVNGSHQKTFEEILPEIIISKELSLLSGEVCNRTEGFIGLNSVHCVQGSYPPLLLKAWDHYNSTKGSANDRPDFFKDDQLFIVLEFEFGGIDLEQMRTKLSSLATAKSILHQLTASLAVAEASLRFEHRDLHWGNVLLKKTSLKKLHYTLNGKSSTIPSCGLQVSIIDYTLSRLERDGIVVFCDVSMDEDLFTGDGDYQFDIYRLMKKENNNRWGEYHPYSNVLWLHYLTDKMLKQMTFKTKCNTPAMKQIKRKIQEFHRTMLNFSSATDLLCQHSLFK
The description is as above. The format is biochemical. The following applies: 1 µmol/L of BTK inhibitor.

The next test deals with T8, MARK1 (Homo sapiens, UniProt Q9P0L2).
T8 construct: purchased Carna Biosciences
T8 sequence (Q9P0L2 whole entry): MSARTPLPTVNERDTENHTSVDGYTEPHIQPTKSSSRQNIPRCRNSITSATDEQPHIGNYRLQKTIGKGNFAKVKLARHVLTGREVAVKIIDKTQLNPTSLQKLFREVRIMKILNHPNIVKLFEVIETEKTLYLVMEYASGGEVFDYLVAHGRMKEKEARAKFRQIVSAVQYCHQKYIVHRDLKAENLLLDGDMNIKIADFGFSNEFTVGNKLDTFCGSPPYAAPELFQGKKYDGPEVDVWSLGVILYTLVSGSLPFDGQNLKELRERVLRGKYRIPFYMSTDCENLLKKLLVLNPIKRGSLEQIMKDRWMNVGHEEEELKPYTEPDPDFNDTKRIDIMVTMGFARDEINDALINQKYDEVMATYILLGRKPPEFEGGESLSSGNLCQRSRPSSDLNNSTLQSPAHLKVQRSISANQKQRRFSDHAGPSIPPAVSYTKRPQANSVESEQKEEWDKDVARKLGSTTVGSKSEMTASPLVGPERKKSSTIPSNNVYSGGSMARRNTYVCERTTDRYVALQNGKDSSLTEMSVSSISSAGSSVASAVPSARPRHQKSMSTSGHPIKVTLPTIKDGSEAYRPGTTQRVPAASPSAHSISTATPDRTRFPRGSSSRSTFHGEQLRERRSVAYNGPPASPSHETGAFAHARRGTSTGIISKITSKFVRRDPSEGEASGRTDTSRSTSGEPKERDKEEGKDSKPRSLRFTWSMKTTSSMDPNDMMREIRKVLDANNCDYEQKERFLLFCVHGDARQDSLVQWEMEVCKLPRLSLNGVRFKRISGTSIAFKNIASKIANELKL
Described as above. The following applies: 1 µmol/L of BTK inhibitor. The class given is biochemical.

The next test has as its target T9, MST3 (Homo sapiens, UniProt Q9Y6E0).
T9 construct: purchased Carna Biosciences
The description is as above. The class given is biochemical. The following applies: 1 µmol/L of BTK inhibitor.

A further test addresses T10, p70S6Kβ (Homo sapiens, UniProt Q9UBS0).
T10 construct: purchased Carna Biosciences
The description is as above. The format is biochemical. To be noted: 1 µmol/L of BTK inhibitor.

The target of a further test is T11, PHKG1 (Homo sapiens, UniProt Q16816).
T11 construct: purchased Carna Biosciences
T11 sequence (Q16816 whole entry): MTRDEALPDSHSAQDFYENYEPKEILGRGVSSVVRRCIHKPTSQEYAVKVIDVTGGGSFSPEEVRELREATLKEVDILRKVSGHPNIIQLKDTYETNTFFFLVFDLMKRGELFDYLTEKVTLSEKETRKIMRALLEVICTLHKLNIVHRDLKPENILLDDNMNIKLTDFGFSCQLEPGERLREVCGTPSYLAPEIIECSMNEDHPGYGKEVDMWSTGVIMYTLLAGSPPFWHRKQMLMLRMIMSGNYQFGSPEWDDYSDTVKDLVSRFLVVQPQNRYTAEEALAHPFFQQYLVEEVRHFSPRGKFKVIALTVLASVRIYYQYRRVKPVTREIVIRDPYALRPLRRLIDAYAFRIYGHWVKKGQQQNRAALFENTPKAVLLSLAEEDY
The description is as above. The following applies: 1 µmol/L of BTK inhibitor. The format is biochemical.

The target in the next test is T12, PLK2 (Homo sapiens, UniProt Q9NYY3).
T12 construct: purchased Carna Biosciences
The description is as above. The class given is biochemical. To be noted: 1 µmol/L of BTK inhibitor.

A further test deals with T13, QIK (Homo sapiens, UniProt Q9H0K1).
T13 construct: purchased Carna Biosciences
T13 sequence (Q9H0K1 whole entry): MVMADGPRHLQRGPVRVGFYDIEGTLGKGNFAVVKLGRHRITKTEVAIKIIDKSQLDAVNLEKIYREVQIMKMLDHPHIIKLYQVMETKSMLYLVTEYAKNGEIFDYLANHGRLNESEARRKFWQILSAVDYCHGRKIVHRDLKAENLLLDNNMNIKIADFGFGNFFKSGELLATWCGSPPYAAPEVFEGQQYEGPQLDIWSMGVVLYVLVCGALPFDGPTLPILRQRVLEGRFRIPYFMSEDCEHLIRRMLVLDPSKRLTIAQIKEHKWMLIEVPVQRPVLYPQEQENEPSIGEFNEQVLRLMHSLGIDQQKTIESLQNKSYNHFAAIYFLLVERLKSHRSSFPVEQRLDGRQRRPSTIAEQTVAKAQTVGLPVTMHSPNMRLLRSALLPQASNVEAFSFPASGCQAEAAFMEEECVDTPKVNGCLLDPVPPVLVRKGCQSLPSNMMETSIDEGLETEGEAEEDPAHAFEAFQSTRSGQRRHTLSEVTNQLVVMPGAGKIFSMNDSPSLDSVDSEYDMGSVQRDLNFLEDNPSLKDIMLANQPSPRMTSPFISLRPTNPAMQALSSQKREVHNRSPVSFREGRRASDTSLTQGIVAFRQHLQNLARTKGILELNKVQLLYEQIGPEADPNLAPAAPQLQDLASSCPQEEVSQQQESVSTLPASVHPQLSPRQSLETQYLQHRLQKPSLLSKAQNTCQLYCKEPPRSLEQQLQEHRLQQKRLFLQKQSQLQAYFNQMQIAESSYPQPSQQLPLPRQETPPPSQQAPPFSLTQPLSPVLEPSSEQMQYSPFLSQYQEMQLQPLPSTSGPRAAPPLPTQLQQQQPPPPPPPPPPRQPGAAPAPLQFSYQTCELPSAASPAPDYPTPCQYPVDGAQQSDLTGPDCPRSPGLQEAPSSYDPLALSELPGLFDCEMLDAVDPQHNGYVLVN
The test is described as above. The class given is biochemical. The following applies: 1 µmol/L of BTK inhibitor.

A further test concerns the target T14, SIK (Homo sapiens, UniProt P57059).
T14 construct: purchased Carna Biosciences
The description is as above. The format is biochemical. To be noted: 1 µmol/L of BTK inhibitor.

The target of the next test is PDGFRα (Homo sapiens, UniProt P16234). Put plainly: Kinase enzyme activity assay (mobility shift assay, Carna). To be noted: for Percentage inhibition of kinase enzyme activity: PDGFRα, 1 µmol/L of BTK inhibitor.
Chain of PDGFRα (P16234 24-1089): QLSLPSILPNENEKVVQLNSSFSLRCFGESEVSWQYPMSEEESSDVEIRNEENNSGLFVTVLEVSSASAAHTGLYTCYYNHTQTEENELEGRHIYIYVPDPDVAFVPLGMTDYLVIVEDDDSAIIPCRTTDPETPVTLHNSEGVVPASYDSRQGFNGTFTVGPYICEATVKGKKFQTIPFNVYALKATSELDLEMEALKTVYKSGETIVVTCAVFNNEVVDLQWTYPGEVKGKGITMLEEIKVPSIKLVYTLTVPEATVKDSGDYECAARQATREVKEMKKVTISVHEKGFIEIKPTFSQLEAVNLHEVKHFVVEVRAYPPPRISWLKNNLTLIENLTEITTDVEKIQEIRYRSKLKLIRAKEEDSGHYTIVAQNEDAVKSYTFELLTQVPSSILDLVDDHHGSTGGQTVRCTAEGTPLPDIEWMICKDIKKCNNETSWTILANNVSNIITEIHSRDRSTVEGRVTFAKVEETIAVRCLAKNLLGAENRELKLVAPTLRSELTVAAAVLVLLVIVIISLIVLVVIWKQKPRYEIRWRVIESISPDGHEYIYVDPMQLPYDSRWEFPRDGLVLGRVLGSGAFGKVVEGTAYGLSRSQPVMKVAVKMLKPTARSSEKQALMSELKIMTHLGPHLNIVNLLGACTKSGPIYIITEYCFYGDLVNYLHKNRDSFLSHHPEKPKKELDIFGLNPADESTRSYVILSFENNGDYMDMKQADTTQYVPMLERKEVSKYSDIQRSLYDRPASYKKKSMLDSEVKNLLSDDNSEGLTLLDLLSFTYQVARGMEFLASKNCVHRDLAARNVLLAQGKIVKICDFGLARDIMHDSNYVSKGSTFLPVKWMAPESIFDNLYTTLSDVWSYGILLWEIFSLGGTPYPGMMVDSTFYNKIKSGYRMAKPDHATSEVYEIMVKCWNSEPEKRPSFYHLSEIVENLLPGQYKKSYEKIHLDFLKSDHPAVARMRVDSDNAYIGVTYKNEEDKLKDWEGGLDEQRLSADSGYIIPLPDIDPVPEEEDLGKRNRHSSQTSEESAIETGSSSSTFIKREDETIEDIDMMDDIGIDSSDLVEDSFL
The target of the next test is Aurora B (Homo sapiens, UniProt Q96GD4). Put plainly: Kinase panel profiling at 1 µmol/L (mobility shift assay, Carna). To be noted: for Percentage inhibition of kinase enzyme activity: AurB, 1 µmol/L of BTK inhibitor.
Chain of Aurora B (Q96GD4 whole entry): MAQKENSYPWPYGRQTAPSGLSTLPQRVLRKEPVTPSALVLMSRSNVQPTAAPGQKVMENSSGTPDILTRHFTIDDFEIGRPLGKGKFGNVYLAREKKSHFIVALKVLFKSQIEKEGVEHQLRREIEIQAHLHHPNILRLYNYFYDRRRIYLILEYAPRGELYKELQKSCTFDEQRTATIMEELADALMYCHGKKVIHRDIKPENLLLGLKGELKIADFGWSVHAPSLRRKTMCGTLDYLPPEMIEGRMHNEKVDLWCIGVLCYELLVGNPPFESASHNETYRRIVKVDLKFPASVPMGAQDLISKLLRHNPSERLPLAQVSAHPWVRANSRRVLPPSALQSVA
Chain of Aurora B (Q9NQS7 803-916 partner limits assumed): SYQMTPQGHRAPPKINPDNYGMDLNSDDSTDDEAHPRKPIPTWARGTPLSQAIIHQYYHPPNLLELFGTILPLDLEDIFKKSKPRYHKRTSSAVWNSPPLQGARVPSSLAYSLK

T10 sequence (Q9UBS0 whole entry): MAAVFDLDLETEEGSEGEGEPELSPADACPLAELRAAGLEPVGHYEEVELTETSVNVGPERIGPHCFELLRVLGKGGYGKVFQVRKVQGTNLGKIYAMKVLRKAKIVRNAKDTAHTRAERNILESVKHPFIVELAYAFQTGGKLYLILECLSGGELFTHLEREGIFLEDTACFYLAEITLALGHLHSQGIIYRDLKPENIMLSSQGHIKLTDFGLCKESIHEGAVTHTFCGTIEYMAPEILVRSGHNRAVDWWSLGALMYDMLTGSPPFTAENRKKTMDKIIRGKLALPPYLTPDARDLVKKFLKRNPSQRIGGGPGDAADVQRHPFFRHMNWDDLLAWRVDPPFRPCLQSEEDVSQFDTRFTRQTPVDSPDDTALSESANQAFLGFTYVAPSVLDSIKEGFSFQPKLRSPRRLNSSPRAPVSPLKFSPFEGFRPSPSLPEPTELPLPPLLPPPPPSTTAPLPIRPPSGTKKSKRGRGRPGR

As to `CC#CC(=O)N1CCC[C@H]1c1nc(-c2ccc(C(=O)Nc3ccccn3)cc2)c2c(N)nccn12` [acalabrutinib], the “Percentage inhibition of kinase enzyme activity” value (from here on “Percentage inhibition”) at FAK is given as -1.39%; on TRKA, 12.80%; at AurA/TPX2, -4.71%; on CaMK2β, -1.09%; at CDK9/CycT1, 15.27%; at CGK2 it was 1.55%. Also, the “Percentage inhibition” value on Haspin is listed as 5.31%; on MARK1, -3.49%; at MST3 it was -2.52%; at p70S6Kβ it was -14.17%; on PHKG1, -4.16%; on PLK2, 2.47%. In addition, the “Percentage inhibition” value on QIK is -0.22%; on SIK, 0.26%; at PDGFRα, 1.38%; on Aurora B, 10.86%.
Regarding `COc1ccc(F)cc1C(=O)NCc1ccc(-c2nn([C@@H](C)C(F)(F)F)c(N)c2C(N)=O)cc1` [pirtobrutinib], the “Percentage inhibition” value on FAK was 0.91%; at TRKA, 4.28%; at AurA/TPX2, 1.13%; on CaMK2β it was -2.89%; at CDK9/CycT1 it was -6.41%; at CGK2, -1.75%. Besides, the “Percentage inhibition” value was -3.18% on Haspin; -8.44% at MARK1; 0.67% at MST3; 10.01% on p70S6Kβ; 4.81% on PHKG1; 2.89% at PLK2. Moreover, the “Percentage inhibition” value is 8.30% on QIK, -2.28% on SIK, 3.06% on PDGFRα and 88.69% at Aurora B. Moreover, the inhibition at 1 µM at Aurora B (read-out: Inhibition of Aurora B) is greater than 75%.
`C=CC(=O)N1CCC[C@@H](n2nc(-c3ccc(Oc4ccccc4)cc3)c3c(N)ncnc32)C1` [ibrutinib]: the “Percentage inhibition” value is 5.04% at FAK; 59.18% on TRKA; -2.33% at AurA/TPX2; -2.56% at CaMK2β; -1.77% at CGK2; 2.53% at Haspin. Moreover, the “Percentage inhibition” value at MARK1 was found to be 2.46%; on MST3, 7.79%; at p70S6Kβ, 0.87%; on PHKG1 it was 1.53%; on PLK2, 1.72%; at QIK, 4.70%. In addition, the “Percentage inhibition” value on SIK is recorded as 8.13%; on PDGFRα it was 94.28%; at Aurora B, -1.10%.
With `O=C(c1ccc(Oc2ccccc2)cc1Cl)c1c[nH]c2ncnc(N[C@@H]3CC[C@@H](CO)OC3)c12` [nemtabrutinib], the “Percentage inhibition” value at FAK is given as 100.03%; on TRKA, 99.52%; on AurA/TPX2 it was 4.98%; on CaMK2β, 2.18%; on CDK9/CycT1 it was -0.08%; on CGK2, -1.75%. In addition, the “Percentage inhibition” value on Haspin is listed as -1.40%; at MARK1, 2.15%; at MST3 it was 60.10%; on p70S6Kβ it was 4.30%; at PHKG1 it was 7.46%; on PLK2, 3.06%. The “Percentage inhibition” value at QIK worked out at 81.76%; on SIK, 96.56%; at PDGFRα, 88.08%; on Aurora B, 57.52%. Besides, the 50% inhibitory concentration (IC50) at PDGFRα worked out at 12.4 nM.
As for `C=CC(=O)N1CCC([C@@H]2CCNc3c(C(N)=O)c(-c4ccc(Oc5ccccc5)cc4)nn32)CC1` [zanubrutinib], the “Percentage inhibition” value at FAK is recorded as 0.0146%; on PDGFRα, 3.66%.
